These results are taken from ChEMBL document CHEMBL1759879, “A new quinoline derivative with cytotoxic activity from Streptomyces sp. neau50” (Bioorg Med Chem Lett, 2011).

Converted amounts (≈) assume the structure as drawn. The source made the active and inactive calls. The calls are words filed in the database; no cut-off is given here.

One assay deals with A549. Put plainly: Cytotoxicity against human A549 cells after 72 hrs colorimetric assay. To be noted: A549, 72 h. In kind it is functional, cell-based.
In the next assay the test system is Candida albicans. As to the kind of experiment: Antimicrobial activity against Candida albicans at 10 uM by agar diffusion method. It is filed as functional, organism-based. A general note: Agar diffusion results depend on both activity and mobility in agar.
In assay [1] the test system is Staphylococcus epidermidis. Put plainly: Antimicrobial activity against Staphylococcus epidermidis at 10 uM by agar diffusion method. It is filed as functional, organism-based.

What is called IC50 is the concentration that gives 50% inhibition. `COC(=O)c1cc(C)nc2c(CCC(C)(C)OC)cccc12` showed an IC50 in the assay on A549 of 29.3 µg/mL (≈ 97.2 µM). For the same compound, the outcome (in the assay on Candida albicans; in assay [1]) was inactive.
